From patent US7868135B2, “Compositions of lipopeptide antibiotic derivatives and methods of use thereof” (priority 2003, dated 2011)
Starred links: 1 amine or outer side, 2 acyl side, 3 side chain; linkers in the order of their positions; H or OH if unused. Positions of bridges follow the written chain, without caps; N, C: chain ends. Non-standard residues stand in square brackets, D forms with d. Residues, ends and D or L forms follow the SMILES beside them. ξ: configuration not given here. *: point of attachment. X35 = CC(C(N[*:1])C(=O)[*:2])N(Cc1ccc(O)cc1)Cc1ccc(O)cc1; Hexadecanesulfonyl = CCCCCCCCCCCCCCCCS(=O)(=O)*; X22 = CC(NC(=O)[C@H](N)CO)C(N[*:1])C(=O)[*:2]; ξAbu(βξ-NH2) = CC(N[*:3])C(N[*:1])C(=O)[*:2]; X23 = CC(NCc1ccc(O)cc1)C(N[*:1])C(=O)[*:2]; X36 = CC(NC(=O)CN(C)C)C(N[*:1])C(=O)[*:2]; Pentadecanoyl = CCCCCCCCCCCCCCC(=O)*; ξAsp(βξ-Me) = CC(C(=O)O)C(N)C(=O)O; Palmitoyl = CCCCCCCCCCCCCCCC(=O)*; X1 = O=C(Cc1ccc(N[*:1])cc1)[*:2]; ξAbu(3ξ-NH2) = CC(N)C(N)C(=O)O; NH(CH2)11CH3 = CCCCCCCCCCCCN*; Undecanoyl = CCCCCCCCCCC(=O)*; Decanoyl = CCCCCCCCCC(=O)*; X19 = CCCCCCCCCCS(=O)(=O)*; 3Abz = Nc1cccc(C(=O)O)c1; Pip = O=C(O)[CH]1CCCCN1; ξD = NC(CC(=O)O)C(=O)O; ξPip = O=C(O)C1CCCCN1; CO = O=C([*:1])[*:2]; ξV = CC(C)C(N)C(=O)O; ξP = O=C(O)C1CCCN1

System: Staphylococcus aureus (MSSA)
Details: 24 h
Outline: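 Broth microdilution MIC per NCCLS M7-A6 with doubling serial dilutions, in cation-adjusted Mueller-Hinton broth supplemented with 0.625 mM calcium.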

| MIC [µg/mL] | SMILES |
| --- | --- |
| 1 | CCCCCCCCCCCCCCC(=O)NC(CC(=O)O)C(=O)NC1C(=O)N2CCCCC2C(=O)NC(C(C)C(=O)O)C(=O)NC(CC(=O)O)C(=O)NCC(=O)NC(CC(=O)O)C(=O)NCC(=O)NC(C(C)NC(=O)CN(C)C)C(=O)NC(C(C)C)C(=O)N2CCCC2C(=O)NC1C (stereo not drawn) [Compound 268, C15-Amphomycin-9-(N,N-Dimethylglycine)] (Pentadecanoyl-D[ξAbu(βξ-NH2)][Pip][ξAsp(βξ-Me)]DGDG[X36]VP; lactam 2-C; configuration not given here) |
| 4 to 8 | CCCCCCCCCCS(=O)(=O)NCC(=O)NC(CC(=O)O)C(=O)NC1C(=O)N2CCCCC2C(=O)NC(C(C)C(=O)O)C(=O)NC(CC(=O)O)C(=O)NCC(=O)NC(CC(=O)O)C(=O)NCC(=O)NC(C(C)N)C(=O)NC(C(C)C)C(=O)N2CCCC2C(=O)NC1C (stereo not drawn) [Compound 269, CH3—(CH2)9—SO2-Gly-Amphomycin] (X19-GD[ξAbu(βξ-NH2)][Pip][ξAsp(βξ-Me)]DGDG[ξAbu(3ξ-NH2)]VP; lactam 3-C; configuration not given here) |
| 16 to 32 | CCCCCCCCCCCCCCCCS(=O)(=O)N[C@@H](Cc1ccccc1)C(=O)NC(CC(=O)O)C(=O)NC1C(=O)N2CCCCC2C(=O)NC(C(C)C(=O)O)C(=O)NC(CC(=O)O)C(=O)NCC(=O)NC(CC(=O)O)C(=O)NCC(=O)NC(C(C)N)C(=O)NC(C(C)C)C(=O)N2CCCC2C(=O)NC1C (stereo partly drawn) [Compound 270, CH3—(CH2)15—SO2-Phe-Amphomycin] (Hexadecanesulfonyl-F[ξD][ξAbu(βξ-NH2)][ξPip][ξAsp(βξ-Me)][ξD]G[ξD]G[ξAbu(3ξ-NH2)][ξV][ξP]; lactam 3-C) |
| 0.5 to 1 | CCCCCCCCCCCCCCNC(=O)NC(CC(=O)O)C(=O)NC1C(=O)N2CCCCC2C(=O)NC(C(C)C(=O)O)C(=O)NC(CC(=O)O)C(=O)NCC(=O)NC(CC(=O)O)C(=O)NCC(=O)NC(C(C)NC(=O)CNC(=O)[C@@H](N)CCCCN)C(=O)NC(C(C)C)C(=O)N2CCCC2C(=O)NC1C (stereo partly shown) [Compound 277, CH3—(CH2)13—NH—C(═O)-Amphomycin-9-Gly-Lys] |
| 0.5 | CCCCCCCCCCCCCCNC(=O)NC(CC(=O)O)C(=O)NC1C(=O)N2CCCCC2C(=O)NC(C(C)C(=O)O)C(=O)NC(CC(=O)O)C(=O)NCC(=O)NC(CC(=O)O)C(=O)NCC(=O)NC(C(C)NC(=O)CN)C(=O)NC(C(C)C)C(=O)N2CCCC2C(=O)NC1C (stereo not shown) [Compound 279, CH3—(CH2)13—NH—C(═O)-Amphomycin-9-Gly] |
| 2 | CCCCCCCCCCCCCCCC(=O)Nc1ccc(CC(=O)NC(CC(=O)O)C(=O)NC2C(=O)N3CCCCC3C(=O)NC(C(C)C(=O)O)C(=O)NC(CC(=O)O)C(=O)NCC(=O)NC(CC(=O)O)C(=O)NCC(=O)NC(C(C)N)C(=O)NC(C(C)C)C(=O)N3CCCC3C(=O)NC2C)cc1 (stereo not drawn) [Compound 281, C16-(p-Apa)-Amphomycin] (Palmitoyl-[X1]D[ξAbu(βξ-NH2)][Pip][ξAsp(βξ-Me)]DGDG[ξAbu(3ξ-NH2)]VP; lactam 3-C; configuration not given here) |
| 2 | CCCCCCCCCCCNC(=O)NCCC(=O)NC(CC(=O)O)C(=O)NC1C(=O)N2CCCCC2C(=O)NC(C(C)C(=O)O)C(=O)NC(CC(=O)O)C(=O)NCC(=O)NC(CC(=O)O)C(=O)NCC(=O)NC(C(C)N)C(=O)NC(C(C)C)C(=O)N2CCCC2C(=O)NC1C (stereo not drawn) [Compound 286, CH3—(CH2)10—NH—C(═O)-(β-Ala)-Amphomycin] |
| 2 | CCCCCCCCCCCCCCNC(=O)NCCCC(=O)NC(CC(=O)O)C(=O)NC1C(=O)N2CCCCC2C(=O)NC(C(C)C(=O)O)C(=O)NC(CC(=O)O)C(=O)NCC(=O)NC(CC(=O)O)C(=O)NCC(=O)NC(C(C)N)C(=O)NC(C(C)C)C(=O)N2CCCC2C(=O)NC1C (stereo not shown) [Compound 291, CH3—(CH2)13—NH—C(═O)-(GABA)-Amphomycin] |
| 2 | CCCCCCCCCC(=O)Nc1cccc(C(=O)NC(CC(=O)O)C(=O)NC2C(=O)N3CCCCC3C(=O)NC(C(C)C(=O)O)C(=O)NC(CC(=O)O)C(=O)NCC(=O)NC(CC(=O)O)C(=O)NCC(=O)NC(C(C)N)C(=O)NC(C(C)C)C(=O)N3CCCC3C(=O)NC2C)c1 (stereo not drawn) [Compound 293, C10-(M-Aminobenzoyl)-Amphomycin] ({Decanoyl-3Abz}-D[ξAbu(βξ-NH2)][Pip][ξAsp(βξ-Me)]DGDG[ξAbu(3ξ-NH2)]VP; lactam 2-C; configuration not given here) |
| 0.5 | CCCCCCCCCCC(=O)Nc1cccc(C(=O)NC(CC(=O)O)C(=O)NC2C(=O)N3CCCCC3C(=O)NC(C(C)C(=O)O)C(=O)NC(CC(=O)O)C(=O)NCC(=O)NC(CC(=O)O)C(=O)NCC(=O)NC(C(C)N)C(=O)NC(C(C)C)C(=O)N3CCCC3C(=O)NC2C)c1 (stereo not drawn) [Compound 294, C11-(M-Aminobenzoyl)-Amphomycin] ({Undecanoyl-3Abz}-D[ξAbu(βξ-NH2)][Pip][ξAsp(βξ-Me)]DGDG[ξAbu(3ξ-NH2)]VP; lactam 2-C; configuration not given here) |
| 0.5 | CCCCCCCCCCCCCCNC(=O)NCCC(=O)NC(CC(=O)O)C(=O)NC1C(=O)N2CCCCC2C(=O)NC(C(C)C(=O)O)C(=O)NC(CC(=O)O)C(=O)NCC(=O)NC(CC(=O)O)C(=O)NCC(=O)NC(C(C)N)C(=O)NC(C(C)C)C(=O)N2CCCC2C(=O)NC1C (stereo not drawn) [Compound 295, CH3—(CH2)13—NH—C(═O)-(β-Ala)-Amphomycin] |

Second part, the molecule before the results:

| SMILES | MIC [µg/mL] |
| --- | --- |
| CCCCCCCCNC(=O)NC(CC(=O)O)C(=O)NC1C(=O)N2CCCCC2C(=O)NC(C(C)C(=O)O)C(=O)NC(CC(=O)O)C(=O)NCC(=O)NC(CC(=O)O)C(=O)NCC(=O)NC(C(C)N)C(=O)NC(C(C)C)C(=O)N2CCCC2C(=O)NC1C (stereo not shown) [Compound 252, CH3—(CH2)7—NH—C(═O)-Amphomycin] | 32 |
| CCCCCCCCCCCCNC(=O)NCC(=O)NC(CC(=O)O)C(=O)NC1C(=O)N2CCCCC2C(=O)NC(C(C)C(=O)O)C(=O)NC(CC(=O)O)C(=O)NCC(=O)NC(CC(=O)O)C(=O)NCC(=O)NC(C(C)N)C(=O)NC(C(C)C)C(=O)N2CCCC2C(=O)NC1C (stereo not drawn) [Compound 254, CH3—(CH2)11—NH—C(═O)-Gly-Amphomycin] ({NH(CH2)11CH3-CO}-GD[ξAbu(βξ-NH2)][Pip][ξAsp(βξ-Me)]DGDG[ξAbu(3ξ-NH2)]VP; lactam 3-C; configuration not given here) | 2 to 4 |
| CCCCCCCCCCCCCCC(=O)NC(CC(=O)O)C(=O)NC1C(=O)N2CCCCC2C(=O)NC(C(C)C(=O)O)C(=O)NC(CC(=O)O)C(=O)NCC(=O)NC(CC(=O)O)C(=O)NCC(=O)NC(C(C)NC(=O)[C@H](N)CO)C(=O)NC(C(C)C)C(=O)N2CCCC2C(=O)NC1C (stereo partly drawn) [Compound 262, C15-Amphomycin-(D-Ser)] (Pentadecanoyl-[ξD][ξAbu(βξ-NH2)][ξPip][ξAsp(βξ-Me)][ξD]G[ξD]G[X22][ξV][ξP]; lactam 2-C) | 4 |
| CCCCCCCCCCCCCCC(=O)NC(CC(=O)O)C(=O)NC1C(=O)N2CCCCC2C(=O)NC(C(C)C(=O)O)C(=O)NC(CC(=O)O)C(=O)NCC(=O)NC(CC(=O)O)C(=O)NCC(=O)NC(C(C)NC(=O)[C@H](N)Cc2ccc(O)cc2)C(=O)NC(C(C)C)C(=O)N2CCCC2C(=O)NC1C (stereo partly drawn) [Compound 263, C15-Amphomycin-(D-Tyr)] | 32 |
| CCCCCCCCCCCCCCC(=O)NC(CC(=O)O)C(=O)NC1C(=O)N2CCCCC2C(=O)NC(C(C)C(=O)O)C(=O)NC(CC(=O)O)C(=O)NCC(=O)NC(CC(=O)O)C(=O)NCC(=O)NC(C(C)NC(=O)[C@H](N)Cc2c[nH]c3ccccc23)C(=O)NC(C(C)C)C(=O)N2CCCC2C(=O)NC1C (stereo partly drawn) [Compound 264, C15-Amphomycin-(D-Trp)] | 8 |
| CCCCCCCCCCCCCCC(=O)NC(CC(=O)O)C(=O)NC1C(=O)N2CCCCC2C(=O)NC(C(C)C(=O)O)C(=O)NC(CC(=O)O)C(=O)NCC(=O)NC(CC(=O)O)C(=O)NCC(=O)NC(C(C)NCc2ccc(O)cc2)C(=O)NC(C(C)C)C(=O)N2CCCC2C(=O)NC1C (stereo not drawn) [Compound 266, C15-Amphomycin-9-(4-Hydroxybenzyl)] (Pentadecanoyl-D[ξAbu(βξ-NH2)][Pip][ξAsp(βξ-Me)]DGDG[X23]VP; lactam 2-C; configuration not given here) | 8 to 16 |
| CCCCCCCCCCCCCCC(=O)NC(CC(=O)O)C(=O)NC1C(=O)N2CCCCC2C(=O)NC(C(C)C(=O)O)C(=O)NC(CC(=O)O)C(=O)NCC(=O)NC(CC(=O)O)C(=O)NCC(=O)NC(C(C)N(Cc2ccc(O)cc2)Cc2ccc(O)cc2)C(=O)NC(C(C)C)C(=O)N2CCCC2C(=O)NC1C (stereo not drawn) [Compound 267, C15-Amphomycin-9-N,N-di-(p-Hydroxybenzyl)] (Pentadecanoyl-D[ξAbu(βξ-NH2)][Pip][ξAsp(βξ-Me)]DGDG[X35]VP; lactam 2-C; configuration not given here) | 8 |
| CCCCCCCC(=O)Nc1ccc(C(=O)NC(CC(=O)O)C(=O)NC2C(=O)N3CCCCC3C(=O)NC(C(C)C(=O)O)C(=O)NC(CC(=O)O)C(=O)NCC(=O)NC(CC(=O)O)C(=O)NCC(=O)NC(C(C)N)C(=O)NC(C(C)C)C(=O)N3CCCC3C(=O)NC2C)cc1 (stereo not shown) [Compound 282, C8-PABA-Amphomycin] | 32 |
| CCCCCCCCCC(=O)Nc1ccc(C(=O)NC(CC(=O)O)C(=O)NC2C(=O)N3CCCCC3C(=O)NC(C(C)C(=O)O)C(=O)NC(CC(=O)O)C(=O)NCC(=O)NC(CC(=O)O)C(=O)NCC(=O)NC(C(C)N)C(=O)NC(C(C)C)C(=O)N3CCCC3C(=O)NC2C)cc1 (stereo not shown) [Compound 283, C10-PABA-Amphomycin] | 2 |
| CCCCCCCCCCC(=O)Nc1ccc(C(=O)NC(CC(=O)O)C(=O)NC2C(=O)N3CCCCC3C(=O)NC(C(C)C(=O)O)C(=O)NC(CC(=O)O)C(=O)NCC(=O)NC(CC(=O)O)C(=O)NCC(=O)NC(C(C)N)C(=O)NC(C(C)C)C(=O)N3CCCC3C(=O)NC2C)cc1 (stereo not shown) [Compound 284, C11-PABA-Amphomycin] | 16 |
| CCCCCCCCCCCCC(=O)Nc1ccc(C(=O)NC(CC(=O)O)C(=O)NC2C(=O)N3CCCCC3C(=O)NC(C(C)C(=O)O)C(=O)NC(CC(=O)O)C(=O)NCC(=O)NC(CC(=O)O)C(=O)NCC(=O)NC(C(C)N)C(=O)NC(C(C)C)C(=O)N3CCCC3C(=O)NC2C)cc1 (stereo not shown) [Compound 285, C13-PABA-Amphomycin] | 0.25 |
